Reference: patent publication US20050020559A1, “Chlorin photosensitizing agents for use in photodynamic therapy” (priority 2001, published 2005)

Legend:
[1] = tested on: corneal neovessels; test: Experimentally induced corneal neovascularization (N-heptanol scrub): PDT closure of corneal neovessels, fluorescein angiography out to 28 days; format: in vivo, Sprague Dawley rats; settings: corneal neovessels induced by n-heptanol scrub, rats; light dose 20 J/cm^2 at optimal excitation wavelength; optimal drug dose and time interval per compound; grade by corneal fluorescein angiography (neovessel-free area)
Description: The chlorin e6molecules were evaluated in a series of preclinical ocular neovessel models, corneal neovascularization, normal choriocapillaris vessels, and choroidal neovascularization. […] The chemical scrub was used to remove the corneal epithelium and stem cells, allowing the neovessels to grow across the entire cornea. PDT was performed at approximately 3 weeks after the chemical scrub when the neovessels formed a uniform network across the cornea. The PDT treatment was applied to the corneal surface with a laser wavelength that was optimized for the given absorption spectrum. The laser energy was coupled through a slit lamp biomicroscope with a slit lamp adapter. A 3.0 mm spot size was used (Area=7.07 mm^2). The light dose delivered was varied from 5-25 J/cm^2. The efficacy of neovessel closure was evaluated by measuring the area of treated cornea that remained neovessel-free out to 28 days following PDT. Accurate area measurements were taken using fluorescein angiography and measuring the area of neovessel-free cornea.

[2] = tested on: choriocapillaris; test: Normal choriocapillaris rabbit model: PDT vessel closure out to 28 days, fluorescein angiography; format: in vivo; settings: pigmented rabbit, intravenous, light dose 20 J/cm^2, optimal drug dose and time interval per compound, grade by fluorescein angiography
Description: The chlorin e6molecules were evaluated in a series of preclinical ocular neovessel models, corneal neovascularization, normal choriocapillaris vessels, and choroidal neovascularization.
Selected chlorin e6 molecules were also evaluated in a normal choriocapillaris model in the pigmented rabbit. […] The selected photosensitizers were administered intravenously at varying drug doses, the light dose was set constant at 20 J/cm^2, and the time interval was varied from 5-30 minutes between drug and light administration. Two PDT treatment areas were placed on the fundus of each eye in each rabbit. Fluorescein angiography was used to evaluate vessel closure following PDT out to 28 days.

[3] = tested on: choroidal neovascularization lesions; test: Laser-induced choroidal neovascularization (CNV) model: PDT closure of CNV lesions, fluorescein angiography and histopathology; format: in vivo, rats
Description: Two of the chlorin e6molecules, (39) and (106), were evaluated in a laser-induced choroidal neovascularization (CNV) model in rats. Laser photocoagulation was used to stimulate choroidal neovessel growth on the fundus of the rat (E. T. Dobi, C. Puliafito, M. A. Destro, “A new model of experimental choroidal neovascularization in the rat”, Arch. Ophthalmol. 1989; 107: 264-269). The PDT treatments were performed approximately 4 weeks after the laser photocoagulation, which was when the choroidal neovascularization lesions were fully developed. The lesions were PDT treated using a 1.2 mm spot which covered the entire CNV lesion. Fluorescein angiography and histopathology were used to evaluate the CNV closure.

`C=Cc1c(C)c2cc3nc(c(CC(=O)OC)c4[nH]c(cc5nc(cc1[nH]2)C(C)=C5CC)c(C)c4C(=O)NCCCO)C(CCC(=O)OC)C3C` (centres unmarked) [Compound 30, 3-[[(3-hydroxypropyl)amino]carbonyl]-13-ethenyl-18-ethyl-7,8-dihydro-5-(2-methoxy-2-oxoethyl)-2,8,12,17-tetramethyl-21H, 23H-Porphine-7-propionic acid, methyl ester] was tested. Which “Extent of neovessel closure at 28 days after treatment” value (“Extent of neovessel closure” for short) [1] did it give?
The value was 2 (2 = 1.1-2.0 mm^2).

And the “Closure at 28 Days” value [2]?
Its value is 3 (3 = 51-75%).

How did the “Extent of neovessel closure” value [1] turn out when `C=Cc1c(C)c2cc3nc(c(CC(=O)OC)c4[nH]c(cc5nc(cc1[nH]2)C(C)=C5CC)c(C)c4C(=O)NCCCOC(C)=O)C(CCC(=O)OC)C3C` (centres unmarked) [Compound 34, 3-[[(3-acetoxypropyl)amino]carbonyl]-13-ethenyl-18-ethyl-7,8-dihydro-5-(2-methoxy-2-oxoethyl)-2,8,12,17-tetramethyl-21H, 23H-Porphine-7-propionic acid, methyl ester] was run?
The value was 1 (1 = 0.21-1.0 mm^2).

And the “Closure at 28 Days” value [2]?
Its value is 3 (3 = 51-75%).

Which “Extent of neovessel closure” value [1] does the source give for `C=Cc1c(C)c2cc3nc(c(CC(=O)OC)c4[nH]c(cc5nc(cc1[nH]2)C(C)=C5CC)c(C)c4C(=O)NCCOCCO)C(CCC(=O)OC)C3C` (centres unmarked) [Compound 39, 3-[[(5-hydroxy-3-oxa-pentyl)amino]carbonyl]-13-ethenyl-18-ethyl-7,8-dihydro-5-(2-methoxy-2-oxoethyl)-2,8,12,17-tetramethyl-21H, 23H-Porphine-7-propionic acid, methyl ester] here?
Its value is 1 (1 = 0.21-1.0 mm^2).

What about the “Closure at 28 Days” value [2] of the same compound?
The value was 4 (4 > 75%).

What about the “CNV closure (fluorescein angiography)” value ([3]; 0.8 & 1.6 μmoles/kg, 10-20 minutes time interval post injection, 7 days after PDT) of the same compound?
Its value is “closed the CNV lesion”.

How did the “Extent of neovessel closure” value [1] turn out when `C=Cc1c(C)c2cc3nc(c(CCO)c4[nH]c(cc5nc(cc1[nH]2)C(C)=C5CC)c(C)c4C(=O)NCCOCCO)C(CCCO)C3C` (centres unmarked) [Compound 43, 7-(3-hydroxypropyl)-3-[[(5-hydroxy-3-oxa-pentyl)amino]carbonyl]-13-ethenyl-18-ethyl-7,8-dihydro-5-(2-hydroxyethyl)-2,8,12,17-tetramethyl-21H, 23H-Porphine] was run?
Its value is 1 (1 = 0.21-1.0 mm^2).

How did the “Extent of neovessel closure” value [1] turn out when `C=Cc1c(C)c2cc3nc(c(CC(=O)OC)c4[nH]c(cc5nc(cc1[nH]2)C(C)=C5CC)c(C)c4C(=O)NCCOCCOC(C)=O)C(CCC(=O)OC)C3C` (centres unmarked) [Compound 45, 3-[[(5-acetoxy-3-oxa-pentyl)amino]carbonyl]-13-ethenyl-18-ethyl-7,8-dihydro-5-(2-methoxy-2-oxoethyl)-2,8,12,17-tetramethyl-21H, 23H-Porphine-7-propionic acid, methyl ester] was run?
Its value is 1 (1 = 0.21-1.0 mm^2).

What about the “Closure at 28 Days” value [2] of the same compound?
The value was 3 (3 = 51-75%).

With `CCC1=C(C)c2cc3[nH]c(cc4nc(c(CC(=O)OC)c5[nH]c(cc1n2)c(C)c5C(=O)NCCCO)C(CCC(=O)OC)C4C)c(C)c3C(C)=O` (centres unmarked) [Compound 101, 3-[[(3-hydroxypropyl]amino]carbonyl]-13-acetyl-18-ethyl-7,8-dihydro-5-(2-methoxy-2-oxoethyl)-2,8,12,17-tetramethyl-21H, 23H-Porphine-7-propionic acid, methyl ester] as the compound, how does the “Extent of neovessel closure” value [1] read?
The value was 0 (0 = 0-0.2 mm^2).

Which “Extent of neovessel closure” value [1] does the source give for `CCC1=C(C)c2cc3[nH]c(cc4nc(c(CC(=O)OC)c5[nH]c(cc1n2)c(C)c5C(=O)NCCOCCO)C(CCC(=O)OC)C4C)c(C)c3C(C)=O` (centres unmarked) [Compound 106, 3-[[(5-hydroxy-3-oxa-pentyl)amino]carbonyl]-13-acetyl-18-ethyl-7,8-dihydro-5-(2-methoxy-2-oxoethyl)-2,8,12,17-tetramethyl-21H, 23H-Porphine-7-propionic acid, methyl ester] here?
Its value is 1 (1 = 0.21-1.0 mm^2).

And the “Closure at 28 Days” value [2]?
The value was 4 (4 > 75%).

And the “CNV closure (fluorescein angiography)” value ([3]; 0.75 μmoles/kg, 20 minutes time interval post injection, 7 days post PDT)?
The value was “demonstrated CNV closure”.
